Experiments:
primary human astrocytes = assay: LysoTracker labeling of lysosomes in primary human astrocytes; assay type: cell-based; settings: 25 μM gemfibrozil and 10 μM fenofibrate, 24 hrs
Excerpt: DAPI was used to visualize nuclei. Results represent 3 independent experiments.

PPARα/RXRα heterodimer = biological target: T1, PPARα/RXRα heterodimer (Mus musculus, UniProt P23204+P28700); assay: Co-immunoprecipitation of PPARα and RXRα from nuclear extract of mouse astrocytes; assay type: cell-based; settings: gemfibrozil (10 μM) and RA (0.5 μM) alone and in combination, 6 hrs
T1 construct: endogenous in cells; host or cells: mouse primary astrocytes (nuclear extract)
T1 sequence (P23204 1-468): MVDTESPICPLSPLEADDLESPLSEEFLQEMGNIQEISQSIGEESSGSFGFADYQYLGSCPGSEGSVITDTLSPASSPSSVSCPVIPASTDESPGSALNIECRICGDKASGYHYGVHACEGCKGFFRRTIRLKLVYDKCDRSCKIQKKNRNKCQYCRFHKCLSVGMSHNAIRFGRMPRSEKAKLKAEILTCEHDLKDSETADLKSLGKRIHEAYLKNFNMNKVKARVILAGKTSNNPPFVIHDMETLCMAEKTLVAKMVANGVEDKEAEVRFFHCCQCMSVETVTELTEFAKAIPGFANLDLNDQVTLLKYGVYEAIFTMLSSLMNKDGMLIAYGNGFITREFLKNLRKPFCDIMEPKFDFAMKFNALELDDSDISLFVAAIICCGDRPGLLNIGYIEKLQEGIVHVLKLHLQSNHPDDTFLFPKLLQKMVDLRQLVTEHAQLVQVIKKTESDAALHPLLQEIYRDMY
T1 sequence (P28700 1-467): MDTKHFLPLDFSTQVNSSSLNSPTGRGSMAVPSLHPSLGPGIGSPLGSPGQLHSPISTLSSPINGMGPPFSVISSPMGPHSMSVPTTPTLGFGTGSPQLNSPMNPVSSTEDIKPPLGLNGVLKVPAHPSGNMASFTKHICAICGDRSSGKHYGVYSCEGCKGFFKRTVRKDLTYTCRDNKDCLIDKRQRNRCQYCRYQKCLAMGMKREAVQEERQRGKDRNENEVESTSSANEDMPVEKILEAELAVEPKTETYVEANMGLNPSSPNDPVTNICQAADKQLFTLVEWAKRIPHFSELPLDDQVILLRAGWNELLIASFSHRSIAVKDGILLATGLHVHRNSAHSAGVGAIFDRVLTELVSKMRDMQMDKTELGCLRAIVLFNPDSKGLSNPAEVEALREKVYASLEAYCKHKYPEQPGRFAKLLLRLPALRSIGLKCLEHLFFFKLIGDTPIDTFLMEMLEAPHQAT
Method: After treatment, cells were washed with PBS, scraped into 1.5 mL tubes and centrifuged in 4° C. for 5 min at 500 rpm. The supernatant was aspirated and the pellet was resuspended in a membrane lysis buffer comprised of (4-(2-hydroxyethyl)-1-piperazineethanesulfonic acid) (HEPES, pH 8.0), MgCl2, KCl, dithiothreitol (DTT) and protease/phosphatase inhibitors, vortexed and centrifuged in 4° C. at 15,000 rpm for 3 minutes. Again, the supernatant was aspirated and the pellet was resuspended in a high salt, nuclear envelope lysis buffer comprised of HEPES (pH 8.0), MgCl2, glycerol, NaCl, ethylenediaminetetraacetic acid (EDTA), DTT and protease/phosphatase inhibitors, rotated vigorously in 4° C. for 30 min and centrifuged in 4° C. at 15,000 rpm for 15 minutes. The resultant nuclear pellet was resuspended in IP buffer and a fraction was kept separately as lysate. The remaining nuclear extract was then precleared with 25 ul of protein A-agarose (50%, v/v). The supernatants were immunoprecipitated with 5 ug of anti-RXRα or anti-PPARα or normal IgG (Santa Cruz Biotechnology, Inc.) overnight at 4 C, followed by incubation with protein A-agarose for 4 hrs at 4° C. Protein A-agarose-antigen-antibody complexes were collected by centrifugation at 12,000 rpm for 60 s at 4° C. […]

TPP1 = assay: Western blot for TPP1 in mouse primary neurons; assay type: cell-based; settings: neurons from cortex, hippocampus, striatum; 25 μM gemfibrozil, 24 hrs
Method: Fetal (E18-E16) mouse neurons were prepared as previously described (23) with modifications. Whole brains were removed and cortical, hippocampal, striatal and cerebellar fractions were dissected in serum free Neurobasal media. The cells were washed by centrifugation three times at 1200 rpm for 10 min, the pellet dissociated and the cells plated at 10% confluence in 8-well chamber slides pre-treated for >2 hr with Poly-D-Lysine (Sigma, St. Louis, Mo.). After 4 min, the non-adherent cell suspension was aspirated and […] complete Neurobasal media (Invitrogen) supplemented with 2% B27 was added to each well. The cells were incubated for 4 days prior to experimentation. […] The cells were stimulated with gemfibrozil in Neurobasal media supplemented with 2% B27 minus antioxidants (Invitrogen) for 24 hr prior to methanol fixation and immunostaining.
Western blotting was conducted as described earlier (27,28) with modifications. Briefly, cells were scraped in double-distilled H20 and sodium dodecyl sulfate (SDS), electrophoresed on NuPAGE® Novex® 4-12% Bis-Tris gels (Invitrogen) and proteins transferred onto a nitrocellulose membrane (Bio-Rad) using the Thermo-Pierce Fast Semi-Dry Blotter. […]
Protein blots were analyzed using ImageJ (NIH, Bethesda, Md.) and bands were normalized to their respective β-actin loading controls. […]

CLN2 (−/−) mice = assay: Motor activity monitoring of CLN2 (−/−) mice; assay type: in vivo, mouse; settings: after 2 weeks and 6 weeks of gemfibrozil treatment
Method: Each animal was allowed 5 mins of adaptation time followed by monitoring for 5 min. *p-value<0.05. n=15 (untreated), n=20 (treated)

CLN2 (−/−) mouse = assay: Survival (Kaplan-Meier) of CLN2 (−/−) mice; assay type: in vivo; settings: oral 7.5 mg/kg body weight/day from 4 weeks of age
Excerpt: Treatment was started from 4 weeks of age for all groups. Methyl cellulose was used as vehicle. Top panel: Schematic representation of experiments performed. Bottom panel: Kaplan-Meier plot for percentage survival of treated vs. vehicle or untreated animals.

SMILES: Cc1ccc(C)c(OCCCC(C)(C)C(=O)O)c1 [gemfibrozil]
- lysosomal proliferation (LysoTracker) (primary human astrocytes): upregulation
- PPARα in immunoblot after immunoprecipitation with RXR Ab (PPARα/RXRα heterodimer): increased abundance of PPARα
- RXR in immunoblot after immunoprecipitation with PPARα Ab, treated vs control (PPARα/RXRα heterodimer): increased presence of RXR
- increase in TPP1 protein (Western blot, densitometric quantification) (TPP1): 2-3 fold
- motor activity parameters (CLN2 (−/−) mice): delays the loss of motor activity
- life span (percentage survival, Kaplan-Meier) (CLN2 (−/−) mouse): prolongs the life span

Source: patent US11351142B2, “Composition and method for treating neuronal ceroid lipofuscinosis” (Rush University Medical Center, priority 2012, dated 2022)
